In paper PMC12365113 (IBRO Neuroscience Reports, 2025):
Marks after values point to notes of the source that are not given here.

Columns and labels:
[1] = molecular target: BSA protein glycation (Bos taurus, UniProt P02769); assay: Anti-glycation assay; type: biochemical, Bovine; conditions: BSA + dextrose, 9 days at 37 °C, mean ± SD of triplicate
[2] = molecular target: Aβ42 (Homo sapiens, UniProt P05067); assay: ThT assay of inhibition of Aβ aggregation; type: biochemical
Aβ42, sequence (P05067 672-713): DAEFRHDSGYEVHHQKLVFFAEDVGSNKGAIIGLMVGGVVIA

BSA protein glycation, sequence (P02769 25-607): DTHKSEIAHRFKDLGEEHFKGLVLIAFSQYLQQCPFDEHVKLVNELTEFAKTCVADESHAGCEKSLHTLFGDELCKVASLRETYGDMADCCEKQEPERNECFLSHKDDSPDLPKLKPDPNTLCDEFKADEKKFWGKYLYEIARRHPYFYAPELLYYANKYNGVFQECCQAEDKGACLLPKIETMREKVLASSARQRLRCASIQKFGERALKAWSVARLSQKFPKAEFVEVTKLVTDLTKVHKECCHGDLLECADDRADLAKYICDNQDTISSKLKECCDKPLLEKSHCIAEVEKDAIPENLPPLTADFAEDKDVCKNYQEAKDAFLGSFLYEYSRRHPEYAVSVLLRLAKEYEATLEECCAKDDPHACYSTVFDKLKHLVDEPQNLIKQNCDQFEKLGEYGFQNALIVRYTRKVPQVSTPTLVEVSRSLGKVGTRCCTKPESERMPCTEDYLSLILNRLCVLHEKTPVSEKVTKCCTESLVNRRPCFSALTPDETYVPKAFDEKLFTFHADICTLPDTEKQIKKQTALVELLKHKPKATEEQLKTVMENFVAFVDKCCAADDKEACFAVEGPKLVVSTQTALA

Row | IC50 [2] | SMILES | Half-maximal inhibitory (IC50) values Protein glycation [1]
1 | – | N=C(N)NN [Aminoguanidine] | 15.27 ± 0.37^b μg/mL
2 | 94.7 µM | O=S1(=O)OC(c2ccc(O)cc2)(c2ccc(O)cc2)c2ccccc21 [Phenol Red] | –
